Assay results as given in article PMC5795001, “The activity of the C4-dicarboxylic acid chemoreceptor of Pseudomonas aeruginosa is controlled by chemoattractants and antagonists” (Scientific Reports, 2018).
Entries after “also recorded” stand apart in the source; their conditions may differ.

Key:
[1] = test system: Pseudomonas aeruginosa PAO1 (wt and PA2652 mutant); assay: Growth experiments with ligands as sole carbon source; assay type: cell-based; details: M9 minimal medium, 10 mM carbon source
Source text: To evaluate the physiological relevance of the ligands identified, we first addressed the question of whether they could support bacterial growth as sole carbon source. To this end, we conducted growth experiments of the wild type (wt) strain and a mutant defective in PA2652 in minimal medium supplemented with the different ligands as sole carbon sources.
Bacterial strains used in this study are listed in Supplementary Table S3. Pseudomonas aeruginosa PAO1 and its derivative strains were routinely grown at 37 °C in Luria Broth (LB; 5 g yeast extract l^−1, 10 g Bacto tryptone l^−1 and 5 g NaCl l^−1) or M9 medium supplemented with 1 mM MgSO4, 6 mg l^−1 Fe-citrate, trace elements[81] and 15 mM glucose as carbon source. For growth experiments to assess the capacity of PA2652-LBD ligands to support growth a sole C-source, PAO1 cells were pre-cultured overnight in M9 medium supplemented with 10 mM glucose and washed twice with M9 medium salts, prior to the inoculation of M9 medium containing10 mM of the different carbon sources. When necessary, the pH of the medium was adjusted to 7.0 prior to inoculation. Bacterial growth over the time was monitored using Bioscreen Microbiological Growth Analyser (Oy Growth Curves Ab Ltd, Helsinki, Finland). Escherichia coli strains were grown at 37 °C in LB. Escherichia coli DH5α was used as a host for gene cloning. When appropriate, antibiotics were used at the following final concentrations (in µg ml^−1): kanamycin, 25 (E. coli strains) and 100 (Pseudomonas strains); tetracycline, 40.

PA2652-LBD [2] = molecular target: T1, PA2652-LBD (Pseudomonas aeruginosa, UniProt Q9I0I6); assay: biochemical; assay type: binding, Pseudomonas aeruginosa PAO1; details: for Binding in ITC: YES/NO
T1 construct: The DNA fragment encoding the LBD of PA2652 (Lys^34–Thr^205) was amplified; His-tag (vector-encoded by pET28b(+) via NdeI site); made in house; host or cells: Escherichia coli BL21 (DE3)
Protocol: To unambiguously determine ligand binding, we conducted Isothermal Titration Calorimetry (ITC)[40] binding studies with the purified protein.
Experiments were conducted on a VP-microcalorimeter (Microcal, Amherst, MA, USA) at 20 °C. PA2652-LBD was dialyzed overnight against TNG buffer, adjusted to a concentration of 20–35 μM and placed into the sample cell of the instrument. The protein was titrated by the injection of 9.6–14.4 μl aliquots of 1–20 mM ligand solutions that were prepared in TNG buffer (20 mM Tris/HCl, 150 mM NaCl, 10% (v/v) glycerol, pH 6.8) immediately before use. The mean enthalpies measured from the injection of ligands into buffer were subtracted from raw titration data prior to data analysis with the MicroCal version of ORIGIN. Data were fitted with the “One binding site model”.

[3] = test system: Pseudomonas aeruginosa PAO1; assay: Quantitative capillary chemotaxis assay, wild type; assay type: cell-based; details: for Concentration of maximum chemotactic response / Chemotactic response: wt PAO1; for Chemotactic response: ligands at 10 µM to 100 mM; for Role of PA2652 ligand (chemoattractant or antagonist): authors' classification from chemotaxis results
Protocol: Secondly, we assessed the capacity of the ligands identified to induce chemotaxis. To this end, we carried out quantitative capillary chemotaxis assays using the wt strain and PA2652 ligands at concentrations ranging from 10 µM to 100 mM.
Overnight cultures of P. aeruginosa strains were diluted to an OD660 of 0.05 in MS medium (30 mM Na2HPO4, 20 mM KH2PO4, 25 mM NH4NO3, 1 mM MgSO4) supplemented with 6 mg l^−1 Fe-citrate, trace elements[81] and 15 mM glucose as carbon source, and grown at 37 °C with orbital shaking (200 rpm). At an OD660 of 0.4 ([…]) cultures were centrifuged at 1,700 × g for 5 min and the resulting pellet was washed twice with chemotaxis buffer (50 mM potassium phosphate, […], 0.05% (v/v) glycerol, pH 7.0). Subsequently, the cells were resuspended in the same buffer, adjusted to an OD660 of 0.1 and 230 µl aliquots of the bacterial cultures were placed into 96-well plates. For the quantitative assays, one-microliter capillary tubes (Microcaps, Drummond Scientific, Ref. P1424) were heat-sealed at one end and filled with either the chemotaxis buffer (negative control) or chemotaxis buffer containing the chemoeffectors to test. The capillaries were immersed into the bacterial suspensions at its open end. After 30 min at room temperature, capillaries were removed from the bacterial suspensions, rinsed with sterile water and the content expelled into 1 ml of M9 medium salts. Serial dilutions were plated onto M9 minimal medium (containing the appropriate antibiotics) supplemented with 15 mM glucose as carbon source. The number of colony forming units was determined after overnight incubation. In all cases, data were corrected with the number of cells that swam into buffer containing capillaries.

PA2652-LBD [4] = molecular target: T1, PA2652-LBD; assay type: binding, Pseudomonas aeruginosa PAO1; details: for Tm increases: DSF screening as described in text, 2 °C threshold for significant hits; for Tm Shift: Biolog arrays PM1, PM2A, PM3b, PM4a, PM5, relative to ligand-free protein Tm 45.5 °C
Source text: To identify ligands that may bind to the LBD of PA2652, we conducted Differential Scanning Fluorimetry (DSF) based high throughput ligand screening assays as described previously[37],[38]. DSF analyses permit the determination of melting temperature (Tm) values, which corresponds to the temperature at which half the protein is in its native conformation whereas the remaining half has undergone thermal unfolding. Since ligand binding typically enhances the thermal stability of proteins, increases in the Tm in the presence of ligands may be indicative of specific binding. We screened 450 different compounds available in five different ligand arrays from Biolog (Supplementary Fig. S3). The screened collection included different carbon and nitrogen sources, phosphorous and sulfurous compounds as well as different nutrient supplements.
Thermal shift assays were performed on a MyIQ2 Real-Time PCR instrument (BioRad). Ligands from the different compound arrays (Biolog, Hayward, CA, USA; see Supplementary Fig. S3) were dissolved in 50 μl of MilliQ water, which, according to the manufacturer, corresponds to a concentration of 10–20 mM. Screening was performed using 96 wells plates. Each well contained 20 μM of protein dialyzed into TNG buffer (20 mM Tris/HCl, 150 mM NaCl, 10% (v/v) glycerol, pH 6.7), 2.5 μl of the resuspended compounds and SYPRO Orange (Life Technologies) at 5× concentration. In a single well (ligand free protein) the compound was substituted by water. Samples were heated from 23 °C to 85 °C at a scan rate of 1 °C/min. The protein unfolding curves were obtained by following the changes in SYPRO Orange fluorescence. Melting temperatures were determined using the first derivative values from the raw fluorescence data.

[5] = test system: Pseudomonas aeruginosa PAO1; assay: Capillary chemotaxis assay in presence of antagonists; assay type: cell-based; details: for Effect of antagonist on chemotaxis toward L-alanine: 1 mM L-alanine, 20 or 40 mM antagonist; for Effect of antagonist on chemotaxis toward L-malic acid: 1 mM L-malic acid, 10, 20 and 40 mM antagonist in suspension and capillary
Protocol: To this end we conducted chemotaxis assays toward L-malic acid in the absence or presence of 10, 20 and 40 mM of citraconic and D,L-methylsuccinic acids (that were added to both, the bacterial suspension and the chemoattractant solution). […] To verify whether the presence of antagonists may have a global inhibitory effect on the chemotactic properties of P. aeruginosa we performed assays toward L-alanine, a chemoattractant recognized by the receptors PctA and PctB[15], in the presence antagonists.
To determine the effect of antagonists in the chemotactic properties of PAO1, the assay was performed as previously described with two minor modifications: (i) Capillary tubes were filled with chemotaxis buffer containing 1 mM of the chemoattractants (L-malic acid or L-alanine) and 10–40 mM of the antagonists (methylsuccinic or citraconic acids); (ii) Bacterial cultures were washed with chemotaxis buffer and cells were finally resuspended in the same buffer but containing equimolar concentrations of methylsuccinic/citraconic acids to those present in the capillary tubes.

[6] = molecular target: the molecule itself; assay: AUC; sedimentation velocity, ligand-free protein at 5-20 uM, 48 000 rpm, 7 °C, 20 mM PIPES pH 7.0

CC(O)(CC(=O)O)C(=O)O (racemic) [D,L-citramalic acid]
Ability to support bacterial growth as sole carbon source [1]: able to efficiently sustain growth | Kd (PA2652-LBD [2]): 61 ± 4 µM | Binding in ITC (PA2652-LBD [2]): YES | Concentration of maximum chemotactic response [3]: 10 mM | Chemotactic response [3]: Significant responses; also recorded: significant chemotaxis | Tm increases (PA2652-LBD [4]): hits

C/C(=C/C(=O)O)C(=O)O [citraconic acid]
Ability to support bacterial growth as sole carbon source [1]: could not be used as sole carbon source | Effect of antagonist on chemotaxis toward L-alanine [5]: did not significantly alter the chemotaxis | Effect of antagonist on chemotaxis toward L-malic acid [5]: reduced the chemotaxis toward L-malic acid | Kd (PA2652-LBD [2]): 210 ± 15 µM | Binding in ITC (PA2652-LBD [2]): YES | Role of PA2652 ligand (chemoattractant or antagonist) [3]: antagonists | Chemotactic response [3]: did not cause any chemotactic response and no | Tm increases (PA2652-LBD [4]): hits

C[C@](O)(CC(=O)O)C(=O)O [L-citramalic acid]
Role of PA2652 ligand (chemoattractant or antagonist) [3]: chemoattractants

O=C(O)[C@H](O)[C@@H](O)C(=O)O [L-tartaric acid]
Binding to PA2652-LBD in ITC (in words) (PA2652-LBD [2]): No binding | Binding to PA2652-LBD in ITC (in words) (PA2652-LBD [2]; listed as tartaric acid): absence of binding | Tm Shift (PA2652-LBD [4]): No significant shift

CC(CC(=O)O)C(=O)O (racemic) [D,L-methylsuccinic acid]
Ability to support bacterial growth as sole carbon source [1]: able to efficiently sustain growth | Effect of antagonist on chemotaxis toward L-alanine [5]: did not significantly alter the chemotaxis | Effect of antagonist on chemotaxis toward L-malic acid [5]: reduced the chemotaxis toward L-malic acid | Kd (PA2652-LBD [2]): 224 ± 10 µM | Binding to PA2652-LBD in ITC (in words) (PA2652-LBD [2]): detection of binding | Binding in ITC (PA2652-LBD [2]): YES | Chemotactic response [3]: Minor but statistically significant responses | Chemotactic response ([3]; listed as methylsuccinic acid): very minor responses

O=C(O)CCCC(=O)O [Glutaric acid]
Tm Shift (PA2652-LBD [4]): No significant shift

O=C(O)CC(=O)C(=O)O [Oxaloacetic acid]
Binding to PA2652-LBD in ITC (in words) (PA2652-LBD [2]): No binding | Binding to PA2652-LBD in ITC (in words) (PA2652-LBD [2]; listed as oxalacetic acid): absence of binding | Tm Shift (PA2652-LBD [4]): No significant shift

O=C(O)C[C@@H](O)C(=O)O [D-malic acid]
Binding to PA2652-LBD in ITC (in words) (PA2652-LBD [2]): did not show binding; also recorded: No binding | Tm Shift (PA2652-LBD [4]): No significant shift | Tm increases (PA2652-LBD [4]): did not cause significant increases

O=C(O)CCC(=O)O [Succinic acid]
Binding to PA2652-LBD in ITC (in words) (PA2652-LBD [2]): No binding | Binding to PA2652-LBD in ITC (in words) (PA2652-LBD [2]; listed as succinic acid): absence of binding | Tm Shift (PA2652-LBD [4]): No significant shift

N[C@@H](CC(=O)O)C(=O)O [L-Aspartic acid]
Binding to PA2652-LBD in ITC (in words) (PA2652-LBD [2]; listed as L-aminosuccinic acid): No binding | Binding to PA2652-LBD in ITC (in words) (PA2652-LBD [2]; listed as aminosuccinic acid): absence of binding | Tm Shift (PA2652-LBD [4]): No significant shift

C[C@@H](O)[C@H](N)C(=O)O [L-threonine]
Binding to PA2652-LBD in ITC (in words) (PA2652-LBD [2]): No binding | Tm Shift (PA2652-LBD [4]): No significant shift

C[C@H](CC(=O)O)C(=O)O [D-methylsuccinic acid]
Binding to PA2652-LBD in ITC (in words) (PA2652-LBD [2]): no binding was observed

O=C(O)CC(Br)C(=O)O (racemic) [D,L-bromosuccinic acid]
Ability to support bacterial growth as sole carbon source [1]: poorly supported bacterial growth | Kd (PA2652-LBD [2]): 1240 ± 700 µM | Binding in ITC (PA2652-LBD [2]): YES | Role of PA2652 ligand (chemoattractant or antagonist) [3]: chemoattractants | Concentration of maximum chemotactic response [3]: 10 mM | Chemotactic response [3]: Significant responses; also recorded: significant chemotaxis | Tm increases (PA2652-LBD [4]): more than 2 °C

O=C(O)/C=C/C(=O)O [Fumaric acid]
Binding to PA2652-LBD in ITC (in words) (PA2652-LBD [2]): No binding | Binding to PA2652-LBD in ITC (in words) (PA2652-LBD [2]; listed as fumaric acid): absence of binding | Tm Shift (PA2652-LBD [4]): No significant shift

C[C@@H](CC(=O)O)C(=O)O [L-methylsuccinic acid]
Role of PA2652 ligand (chemoattractant or antagonist) [3]: antagonists

C[C@@](O)(CC(=O)O)C(=O)O [D-citramalic acid]
Binding to PA2652-LBD in ITC (in words) (PA2652-LBD [2]): no binding was observed

B1: ligand binding domain (LBD) of the chemoreceptor PA2652 (domain or fragment, Pseudomonas aeruginosa PAO1, UniProt Q9I0I6 34-205, looked up)
chain: KKQADAEVKDTRERLLGDRRAELEHYVQIAMGSIQAEYDRSANGDLNARAEAIARLSKIKYGKDGYIFGYDSQVVRLFRGDSPVDVGKSFRDRRDPSGVYLNRELVEAGRNGSHYVTYTSPLPGNESVMVPKLSYTLYLPKWDMVIGSAINLDGVEAQLVEIKQDIDERIGT
notes: No removal of the tag is described; this is surmised; also called PA2652-LBD
stoichiometry N [6]: 2
